Laboratory results published in patent US9834554B2, “BTK inhibitors” (MERCK SHARP & DOHME CORP., priority 2013, dated 2017).
pIC50: −log10 of the molar value. Where two headings read alike, the source gives them in different places.

Target: BTK enzyme (recombinant full-length BTK, hBTK) (Homo sapiens (Human), UniProt Q06187)
Assay: Btk enzyme activity assay, LANCE TR-FRET
[1] = read-out: BTK binding IC50, 50 pM hBTK, 2 μM biotin-A5-peptide, 25 μM ATP, 60 minute compound & enzyme incubation

BTK enzyme (recombinant full-length BTK, hBTK), sequence (Q06187 whole entry): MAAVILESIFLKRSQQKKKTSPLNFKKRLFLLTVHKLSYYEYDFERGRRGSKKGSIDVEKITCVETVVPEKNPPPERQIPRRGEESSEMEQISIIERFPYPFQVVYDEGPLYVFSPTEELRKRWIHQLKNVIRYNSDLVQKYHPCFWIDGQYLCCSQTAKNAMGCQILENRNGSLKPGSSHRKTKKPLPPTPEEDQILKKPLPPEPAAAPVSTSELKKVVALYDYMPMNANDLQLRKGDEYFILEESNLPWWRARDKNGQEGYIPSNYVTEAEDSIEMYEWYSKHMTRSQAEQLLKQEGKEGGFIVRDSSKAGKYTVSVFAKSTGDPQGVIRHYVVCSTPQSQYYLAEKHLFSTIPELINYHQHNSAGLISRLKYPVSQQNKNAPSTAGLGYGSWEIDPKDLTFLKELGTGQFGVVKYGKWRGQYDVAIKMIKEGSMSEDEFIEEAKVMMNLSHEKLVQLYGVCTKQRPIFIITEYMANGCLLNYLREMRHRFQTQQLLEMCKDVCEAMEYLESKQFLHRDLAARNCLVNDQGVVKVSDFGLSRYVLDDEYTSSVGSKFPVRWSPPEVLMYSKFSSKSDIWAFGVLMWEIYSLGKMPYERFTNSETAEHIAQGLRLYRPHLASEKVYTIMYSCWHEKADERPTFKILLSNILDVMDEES
Description: Also BTK enzymatic activity was determined with the LANCE (Lanthanide Chelate Excite) TR-FRET (Time-resolved fluorescence resonance energy transfer) assay. […] Phosphorylation reactions were allowed to proceed for 120 minutes. […] After 60 minutes incubation with detection reagents, reaction plates were read on a PerkinElmer EnVision plate reader using standard TR-FRET protocol. Briefly, excitation of donor molecules (Eu-chelate:anti-phospho-antibody) with a laser light source at 337 nm produces energy that can be transferred to Dylight-650 acceptor molecules if this donor:acceptor pair is within close proximity. Fluorescence intensity at both 665 nm (acceptor) and 615 nm (donor) are measured and a TR-FRET ratio calculated for each well (acceptor intensity/donor intensity).
Btk Enzyme Activity Assay Method
BTK enzymatic activity was determined with the LANCE (Lanthanide Chelate Excite) TR-FRET (Time-resolved fluorescence resonance energy transfer) assay. […] Phosphorylation reactions were allowed to proceed for 120 minutes. […] After 60 minutes incubation with detection reagents, reaction plates were read on a PerkinElmer EnVision plate reader using standard TR-FRET protocol. Briefly, excitation of donor molecules (Eu-chelate:anti-phospho-antibody) with a laser light source at 337 nm produces energy that can be transferred to Dylight-650 acceptor molecules if this donor:acceptor pair is within close proximity. Fluorescence intensity at both 665 nm (acceptor) and 615 nm (donor) are measured and a TR-FRET ratio calculated for each well (acceptor intensity/donor intensity).

pIC50 | pIC50 [1] | Structure (SMILES)
9.77 | – | Nc1nccc2c([C@@H]3CC[C@H]4CCC(=O)N4C3)nn(-c3ccc(C(=O)Nc4cc(C(F)(F)F)ccn4)cc3)c12 [Example 38, 4-{7-amino-3-[(6R,8aS)-3-oxooctahydroindolizin-6-yl]-1H-pyrazolo[3,4-c]pyridin-1-yl}-N-[4-(trifluoromethyl)pyridin-2-yl]benzamide]
– | 8.55 | Nc1nccc2c([C@@H]3CC[C@H]4CCC(=O)N4C3)nn(-c3ccc(C(=O)Nc4cc(C(F)(F)F)ccn4)cc3OC3CC3)c12 [Example 39, 4-{7-amino-3-[(6R,8aS)-3-oxooctahydroindolizin-6-yl]-1H-pyrazolo[3,4-c]pyridin-1-yl}-3-(cyclopropyloxy)-N-[4-(trifluoromethyl)pyridin-2-yl] benzamide]
– | 8.96 | COc1cc(C(=O)Nc2cc(C(F)(F)F)ccn2)ccc1-n1nc([C@@H]2CC[C@H]3CCC(=O)N3C2)c2ccnc(N)c21 [Example 40, 4-{7-amino-3-[(6R,8aS)-3-oxooctahydroindolizin-6-yl]-1H-pyrazolo[3,4-c]pyridin-1-yl}-3-methoxy-N-[4-(trifluoromethyl)pyridin-2-yl] benzamide]
– | 9.36 | CCOc1cc(C(=O)Nc2cc(C(F)(F)F)ccn2)ccc1-n1nc([C@@H]2CC[C@H]3CCC(=O)N3C2)c2ccnc(N)c21 [Example 41, 4-{7-amino-3-[(6R,8aS)-3-oxooctahydroindolizin-6-yl]-1H-pyrazolo[3,4-c]pyridin-1-yl}-3-ethoxy-N-[4-(trifluoromethyl)pyridin-2-yl] benzamide]
